Assay results reported in ChEMBL document CHEMBL6115031, “Structure-Based Optimization of Moracin M as Potent and Selective PDE4 Inhibitors with Antipsoriasis Effects” (J Med Chem, 2025).
The source made the active and inactive calls.

Key:
Mus musculus [1] = experiment: Anti-psoriasis effect in female BALB/c mouse model assessed as reduction in K6 protein expression at 20 mg/kg administered topically as 0.3 % ointment pretreated with IMQ for 6 hrs followed by compound addition once daily for 7 days by Western blotting analysis; type: functional, organism-based; settings: time 7.0 day
[2] = target: High affinity 3',5'-cyclic-AMP phosphodiesterase 7A (Homo sapiens, UniProt Q13946); experiment: Inhibition of PDE7A1 (130 to 482 residues) (unknown origin) extracted from Escherichia coli BL21 cells using 3H-cAMP/3H-cGMP as substrate preincubated with compound for 15 mins followed by substrate addition by liquid scintillation counter
HaCaT [3] = experiment: Cytotoxicity against human HaCaT cells assessed as reduction in cell viability at 5 to 80 uM incubated for 24 hrs by CCK-8 assay; type: toxicity, cell-based; settings: dose 5-80 µM
HaCaT [4] = experiment: Anti-psoriasis effect in M5-stimulated human HaCaT cells assessed as decrease in K17 protein expression at 20 uM pretreated with M5 followed by compound addition and measured after 24 hrs by Western blotting analysis; type: functional, cell-based
Mus musculus [5] = experiment: Anti-psoriasis effect in female BALB/c mouse model assessed as increase in K10 protein expression at 20 mg/kg administered topically as 0.3 % ointment pretreated with IMQ for 6 hrs followed by compound addition once daily for 7 days by Western blotting analysis; type: functional, organism-based; settings: time 7.0 day
Mus musculus [6] = experiment: Anti-inflammatory activity in IMQ-induced psoriasis in female BALB/c mouse assessed as reduction in IL-17 mRNA level at 20 mg/kg administered topically as 0.3 % ointment pretreated with IMQ for 6 hrs followed by compound addition once daily for 7 days by q-PCR analysis; type: functional, organism-based; settings: time 7.0 day
[7] = target: cAMP and cAMP-inhibited cGMP 3',5'-cyclic phosphodiesterase 10A (Homo sapiens, UniProt Q9Y233); experiment: Inhibition of PDE10A2 (449 to 770 residues) (unknown origin) extracted from Escherichia coli BL21 cells using 3H-cAMP/3H-cGMP as substrate preincubated with compound for 15 mins followed by substrate addition by liquid scintillation counter
HaCaT [8] = experiment: Anti-psoriasis effect in M5-stimulated human HaCaT cells assessed as inhibition of cell proliferation at 20 uM pretreated with M5 followed by compound addition and measured after 24 hrs; type: functional, cell-based
[9] = Drug absorption in rat skin assessed as skin permeability by measuring cumulative transdermal amount per unit area administered topically as 0.3% ointment at 100 mg by HPLC analysis; type: ADME, tissue-based, Skin of body; settings: in vivo, topical_or_ocular
Mus musculus [10] = experiment: Anti-psoriasis effect in IMQ-induced female BALB/c mouse model assessed as reduction in abnormal rete ridges at 20 mg/kg administered topically as 0.3 % ointment pretreated with IMQ for 6 hrs followed by compound addition once daily for 7 days by H and E staining based analysis; type: functional, organism-based; settings: time 7.0 day
RAW264.7 [11] = experiment: Anti-inflammatory activity in LPS-stimulated mouse RAW264.7 cells assessed as reduction in IL-1beta mRNA level pretreated with compound for 2 hrs followed by LPS stimulation and measured after 6 hrs by q-PCR analysis; type: functional, cell-based; settings: dose 5-20 µM, time 8.0 hrs
Mus musculus [12] = experiment: Anti-psoriasis effect in IMQ-induced female BALB/c mouse assessed as reduction in psoriasis area at 20 mg/kg administered topically as 0.3 % ointment pretreated with IMQ for 6 hrs followed by compound addition once daily for 7 days; type: functional, organism-based; settings: time 7.0 day
HaCaT [13] = experiment: Anti-inflammatory activity in M5- stimulated human HaCaT cells assessed as reduction in CXCL-2 mRNA level incubated for 24 hrs by q-PCR analysis; type: functional, cell-based; settings: dose 5-20 µM
HaCaT [14] = experiment: Anti-psoriasis effect in M5-stimulated human HaCaT cells assessed as upregulation of K1 protein expression at 20 uM pretreated with M5 followed by compound addition and measured after 24 hrs by Western blotting analysis; type: functional, cell-based
HaCaT [15] = experiment: Anti-psoriasis effect in M5-stimulated human HaCaT cells assessed as upregulation of K10 protein expression at 20 uM pretreated with M5 followed by compound addition and measured after 24 hrs by Western blotting analysis; type: functional, cell-based
HaCaT [16] = experiment: Anti-psoriasis activity in M5-stimulated human HaCaT cells assessed as restoration of cAMP level at 20 uM incubated for 2 hrs by competitive ELISA; type: functional, cell-based
Mus musculus [17] = experiment: Anti-psoriasis effect in female BALB/c mouse model assessed as reduction in K17 protein expression at 20 mg/kg administered topically as 0.3 % ointment pretreated with IMQ for 6 hrs followed by compound addition once daily for 7 days by Western blotting analysis; type: functional, organism-based; settings: time 7.0 day
Mus musculus [18] = experiment: Anti-inflammatory activity in IMQ-induced psoriasis in female BALB/c mouse assessed as reduction in CXCL-2 mRNA level at 20 mg/kg administered topically as 0.3 % ointment pretreated with IMQ for 6 hrs followed by compound addition once daily for 7 days by q-PCR analysis; type: functional, organism-based; settings: time 7.0 day
[19] = target: cGMP-specific 3',5'-cyclic phosphodiesterase (Homo sapiens, UniProt O76074); experiment: Inhibition of PDE5A1 (535 to 860 residues) (unknown origin) extracted from Escherichia coli BL21 cells using 3H-cAMP/3H-cGMP as substrate preincubated with compound for 15 mins followed by substrate addition by liquid scintillation counter
Mus musculus [20] = experiment: Anti-psoriasis effect in IMQ-induced female BALB/c mouse model assessed as reduction in fibroblast proliferation at 20 mg/kg administered topically as 0.3 % ointment pretreated with IMQ for 6 hrs followed by compound addition once daily for 7 days by H and E staining based analysis; type: functional, organism-based; settings: time 7.0 day
Mus musculus [21] = experiment: Anti-inflammatory activity in IMQ-induced psoriasis in female BALB/c mouse assessed as reduction in IL-6 mRNA level at 20 mg/kg administered topically as 0.3 % ointment pretreated with IMQ for 6 hrs followed by compound addition once daily for 7 days by q-PCR analysis; type: functional, organism-based; settings: time 7.0 day
RAW264.7 [22] = experiment: Anti-inflammatory activity in LPS-stimulated mouse RAW264.7 cells assessed as reduction in IL-6 mRNA level pretreated with compound for 2 hrs followed by LPS stimulation and measured after 6 hrs by q-PCR analysis; type: functional, cell-based; settings: dose 5-20 µM, time 8.0 hrs
Mus musculus [23] = experiment: Anti-psoriasis effect in IMQ-induced female BALB/c mouse model assessed as reduced bleeding in dermal papilla layers at 20 mg/kg administered topically as 0.3 % ointment pretreated with IMQ for 6 hrs followed by compound addition once daily for 7 days by H and E staining based analysis; type: functional, organism-based; settings: time 7.0 day
Mus musculus [24] = experiment: Anti-psoriasis effect in IMQ-induced female BALB/c mouse assessed as decrease in skin scales at 20 mg/kg administered topically as 0.3 % ointment pretreated with IMQ for 6 hrs followed by compound addition once daily for 7 days; type: functional, organism-based; settings: time 7.0 day
RAW264.7 [25] = experiment: Anti-inflammatory activity in LPS-stimulated mouse RAW264.7 cells assessed as reduction in TNF-alpha mRNA level pretreated with compound for 2 hrs followed by LPS stimulation and measured after 6 hrs by q-PCR analysis; type: functional, cell-based; settings: dose 5-20 µM, time 8.0 hrs
Mus musculus [26] = experiment: Anti-inflammatory activity in IMQ-induced psoriasis in female BALB/c mouse assessed as reduction in CCL-20 mRNA level at 20 mg/kg administered topically as 0.3 % ointment pretreated with IMQ for 6 hrs followed by compound addition once daily for 7 days by q-PCR analysis; type: functional, organism-based; settings: time 7.0 day
Mus musculus [27] = experiment: Anti-psoriasis effect in IMQ-induced female BALB/c mouse model assessed as reduction in spinous layer thickness at 20 mg/kg administered topically as 0.3 % ointment pretreated with IMQ for 6 hrs followed by compound addition once daily for 7 days by H and E staining based analysis; type: functional, organism-based; settings: time 7.0 day

cAMP and cAMP-inhibited cGMP 3',5'-cyclic phosphodiesterase 10A, sequence (Q9Y233 whole entry, the tested form may be a part): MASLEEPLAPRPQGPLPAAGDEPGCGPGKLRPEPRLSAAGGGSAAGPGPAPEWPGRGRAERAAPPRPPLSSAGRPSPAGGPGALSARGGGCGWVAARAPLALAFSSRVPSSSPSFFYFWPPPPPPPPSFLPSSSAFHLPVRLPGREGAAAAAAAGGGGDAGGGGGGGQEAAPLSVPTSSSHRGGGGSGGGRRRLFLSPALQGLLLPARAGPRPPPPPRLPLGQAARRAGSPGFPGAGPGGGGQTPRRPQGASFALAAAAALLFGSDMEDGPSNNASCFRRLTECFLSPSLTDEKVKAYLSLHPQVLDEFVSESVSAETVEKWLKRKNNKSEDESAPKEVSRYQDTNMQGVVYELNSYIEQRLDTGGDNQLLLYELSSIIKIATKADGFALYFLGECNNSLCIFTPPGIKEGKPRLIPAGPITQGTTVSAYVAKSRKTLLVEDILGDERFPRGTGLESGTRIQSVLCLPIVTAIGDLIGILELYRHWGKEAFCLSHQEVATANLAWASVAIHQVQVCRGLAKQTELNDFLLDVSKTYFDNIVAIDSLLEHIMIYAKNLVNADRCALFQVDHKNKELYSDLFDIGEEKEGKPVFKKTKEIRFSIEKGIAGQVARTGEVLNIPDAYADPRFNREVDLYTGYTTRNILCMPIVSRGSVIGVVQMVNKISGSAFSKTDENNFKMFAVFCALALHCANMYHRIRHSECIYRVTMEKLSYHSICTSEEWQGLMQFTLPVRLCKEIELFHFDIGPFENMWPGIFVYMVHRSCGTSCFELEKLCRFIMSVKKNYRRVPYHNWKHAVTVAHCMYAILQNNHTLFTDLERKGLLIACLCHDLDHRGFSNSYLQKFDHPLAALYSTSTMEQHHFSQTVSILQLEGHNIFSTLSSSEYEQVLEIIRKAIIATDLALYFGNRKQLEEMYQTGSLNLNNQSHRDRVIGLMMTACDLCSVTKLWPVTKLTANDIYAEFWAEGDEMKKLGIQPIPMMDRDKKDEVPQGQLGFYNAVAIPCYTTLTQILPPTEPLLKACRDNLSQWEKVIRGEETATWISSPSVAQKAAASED
High affinity 3',5'-cyclic-AMP phosphodiesterase 7A, sequence (Q13946 whole entry, the tested form may be a part): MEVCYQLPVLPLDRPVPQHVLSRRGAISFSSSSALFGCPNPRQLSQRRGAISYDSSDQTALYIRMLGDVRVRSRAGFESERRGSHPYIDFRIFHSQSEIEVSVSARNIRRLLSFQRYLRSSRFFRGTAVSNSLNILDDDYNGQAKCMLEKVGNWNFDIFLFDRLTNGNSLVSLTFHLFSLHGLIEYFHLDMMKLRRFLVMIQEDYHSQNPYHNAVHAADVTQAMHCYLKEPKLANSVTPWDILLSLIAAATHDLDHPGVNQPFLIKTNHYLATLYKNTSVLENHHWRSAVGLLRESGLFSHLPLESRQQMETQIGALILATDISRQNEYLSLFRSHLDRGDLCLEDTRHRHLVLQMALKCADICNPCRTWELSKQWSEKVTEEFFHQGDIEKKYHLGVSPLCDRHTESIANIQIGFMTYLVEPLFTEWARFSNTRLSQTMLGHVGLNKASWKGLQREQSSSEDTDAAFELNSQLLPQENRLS

COC(=O)[C@H]1C[C@@H](Oc2c(O)ccc3cc(-c4ccc(OC(F)F)c(OCC5CC5)c4)oc23)CN1
15.78 microg/cm2: Drug absorption [9]
active: Activity (Mus musculus [1]) | Activity (HaCaT [4]) | Activity (Mus musculus [5]) | Activity (Mus musculus [6]) | Activity (HaCaT [8]) | Activity (Mus musculus [10]) | Activity (RAW264.7 [11]) Dose-dependent-effect | Activity (Mus musculus [12]) | Activity (HaCaT [13]) Dose-dependent-effect | Activity (HaCaT [14]) | Activity (HaCaT [15]) | Activity (HaCaT [16]) | Activity (Mus musculus [17]) | Activity (Mus musculus [18]) | Activity (Mus musculus [20]) | Activity (Mus musculus [21]) | Activity (RAW264.7 [22]) Dose-dependent-effect | Activity (Mus musculus [23]) | Activity (Mus musculus [24]) | Activity (RAW264.7 [25]) Dose-dependent-effect | Activity (Mus musculus [26]) | Activity (Mus musculus [27])
5.91 µM: IC50 [2]
Non-toxic: Activity (HaCaT [3])
1.95 µM: IC50 [7]
1.73 µM: IC50 [19]
